Like-named read-outs stand apart in the source and are kept apart here. Where a SMILES comes first, the peptide text is derived from it. The star is where a group is joined. Exatecan = CC[C@@]1(O)C(=O)OCc2c1cc1n(c2=O)Cc2c-1nc1cc(F)c(C)c3c1c2[C@@H](N*)CC3; Acetyl(cyclooct-2-yn-1-ylO) = O=C(COC1C#CCCCCC1)*
Tested on: HCT-15
Assay: HCT-15 data of payloads and linker-payloads (EC50, with or without verapamil)
Assay type: cell-based
[1] = Homo sapiens, payload, HCT-15 cells, no verapamil, read-out: HCT-15 EC50
[2] = Homo sapiens, linker-payload, HCT-15 cells, read-out: HCT-15 EC50
[3] = payload, HCT-15 cells plus verapamil, read-out: HCT-15 + verapamil EC50

| Structure (SMILES) | EC50 [1] [nM] | EC50 [2] [nM] | EC50 [3] [nM] |
| --- | --- | --- | --- |
| CC[C@@]1(O)C(=O)OCc2c1cc1n(c2=O)Cc2c-1nc1ccc(OC)cc1c2Cn1cc(Cc2ccccc2)nn1 [P28, (S)-11-((4-benzyl-1H-1,2,3-triazol-1-yl)methyl)-4-ethyl-4-hydroxy-9-methoxy-1,12-dihydro-14H-pyrano[3′,4′:6,7]indolizino[1,2-b]quinoline-3,14(4H)-dione] | 34.2 |  |  |
| CC[C@@]1(O)C(=O)OCc2c1cc1n(c2=O)Cc2c-1nc1cc(F)c(C)c3c1c2[C@@H](NC(=O)[C@H](Cc1ccccc1)NC(=O)OCc1ccc(NC(=O)[C@H](CCCNC(N)=O)NC(=O)[C@@H](NC(=O)CCOCCOCCOCCOCCNC(=O)COC2C#CCCCCC2)C(C)C)cc1)CC3 (stereo partly drawn) [LP10, {4-[(2S)-5-(carbamoylamino)-2-[(2S)-2-{1-[2-(cyclooct-2-yn-1-yloxy)acetamido]-3,6,9,12-tetraoxapentadecan-15-amido}-3-methylbutanamido]pentanamido]phenyl}methyl N-[(1 S)-1-{[(10S,23S)-10-ethyl-18-fluoro-10-hydroxy-19-methyl-5,9-dioxo-8-oxa-4,15-diazahexacyclo[14.7.1.0^2,^14.0^4,^13.0^6,^11.0^20,^24]tetracosa-1,6(11),12,14,16,18,20(24)-heptaen-23-yl]carbamoyl}-2-phenylethyl]carbamate] |  | 852 |  |
| CC[C@@]1(O)C(=O)OCc2c1cc1n(c2=O)Cc2c-1nc1cc(F)c(C)c3c1c2[C@@H](NC(=O)CNC(=O)CNC(=O)CNC(=O)CNC(=O)COC1C#CCCCCC1)CC3 (stereo partly drawn) [LP8, 2-(2-{2-[2-(Cyclooct-2-yn-1-yloxy)acetamido]acetamido}acetamido)-N-({[(10S,23S)-10-ethyl-18-fluoro-10-hydroxy-19-methyl-5,9-dioxo-8-oxa-4,15-diazahexacyclo[14.7.1.0^2,^14.0^4,^13.0^6,^11.0^20,^24]tetracosa-1,6(11),12,14,16,18,20(24)-heptaen-23-yl]carbamoyl}methyl)acetamide] ({Acetyl(cyclooct-2-yn-1-ylO)}-GGGG-Exatecan) |  | 837 |  |
| C#CCNCc1c2c(nc3ccc(OC)cc13)-c1cc3c(c(=O)n1C2)COC(=O)[C@]3(O)CC [P24, (S)-4-ethyl-4-hydroxy-9-methoxy-11-((prop-2-yn-1-ylamino)methyl)-1,12-dihydro-14H-pyrano[3′,4′:6,7]indolizino[1,2-b]quinoline-3,14(4H)-dione] | 13.5 |  |  |
| CC[C@@]1(O)C(=O)OCc2c1cc1n(c2=O)Cc2cc3cc(OC)ccc3nc2-1 [P15, (19S)-19-Ethyl-19-hydroxy-7-methoxy-17-oxa-3,13-diazapentacyclo[11.8.0.0^2,^11.0^4,^9.0^15,^20]henicosa-1(21),2,4,6,8,10,15(20)-heptaene-14,18-dione] | 6.99 |  | 4.47 |
| CC[C@@]1(O)C(=O)OCc2c1cc1n(c2=O)Cc2c-1nc1cc(F)c(C)c3c1c2[C@@H](NC(=O)CNC(=O)OCc1ccc(NC(=O)[C@H](CCCNC(N)=O)NC(=O)[C@@H](NC(=O)CCOCCOCCOCCOCCNC(=O)COC2C#CCCCCC2)C(C)C)cc1)CC3 (stereo partly drawn) [LP5, {4-[(2S)-5-(Carbamoylamino)-2-[(2S)-2-{1-[2-(cyclooct-2-yn-1-yloxy)acetamido]-3,6,9,12-tetraoxapentadecan-15-amido}-3-methylbutanamido]pentanamido]phenyl}methyl N-({[(10S,23S)-10-ethyl-18-fluoro-10-hydroxy-19-methyl-5,9-dioxo-8-oxa-4,15-diazahexacyclo[14.7.1.0^2,^14.0^4,^13.0^6,^11.0^20,^24]tetracosa-1,6(11),12,14,16,18,20(24)-heptaen-23-yl]carbamoyl}methyl)carbamate] |  | > 1000 |  |
| CC[C@@]1(O)C(=O)OCc2c1cc1n(c2=O)Cc2c-1nc1cc(F)c(C)c3c1c2[C@@H](NC(=O)[C@@H](N)CCC(=O)O)CC3 [P3, (4S)-4-amino-4-{[(10S,23S)-10-ethyl-18-fluoro-10-hydroxy-19-methyl-5,9-dioxo-8-oxa-4,15-diazahexacyclo[[14.7.1.0^2,^14.0^4,^13.0^6,^11.0^20,^24]]tetracosa-1,6(11),12,14,16,18,20(24)-heptaen-23-yl]carbamoyl}butanoic acid] | 610 |  | 596 |

— patent US20230287138A1, “PROTEIN-DRUG CONJUGATES COMPRISING CAMPTOTHECIN ANALOGS AND METHODS OF USE THEREOF” (Regneron Pharmaceuticals, Inc., priority 2022, published 2023)
